Patent publication US4255444A, “4-Hydroxy-2-pyrone derivatives having antihyperlipaemic activity” (Sankyo Company Limited, priority 1978, dated 1981)

Biological target: cholesterol biosynthesis (crude enzyme extracted from rat liver)
Experiment: Inhibition of cholesterol biosynthesis by crude enzyme extracted from rat liver (radioactive acetic acid incorporation, digitonin precipitation)
Type: biochemical
Details: 37° C., 60 minutes, compound added at beginning of reaction
Description: Crude enzyme extracted from rat liver was reacted with radioactive acetic acid at 37° C. for 60 minutes. The radioactive cholesterol thus biosynthesized was saponified and precipitated with digitonin, and the radioactivity was measured to determine the amount of cholesterol produced. The reaction was repeated, but adding one of the compounds of the invention listed in the following Table at the beginning of the reaction, and the amount of cholesterol biosynthesized was again determined, to give a quantitative measurement of the inhibitory effect of the compounds of the invention. The concentrations (μg/ml) of the compounds of the invention and of a known compound (clofibrate) which gave approximately 50% inhibition of cholesterol biosynthesis are reported in the following Table as I50 values [see Bricker et al, The Journal of Biological Chemistry, 247, 4914 (1972)]. The compounds of the invention are identified in the following Table by the numbers heretofore assigned to them.

## CCOC(=O)C(C)(C)Oc1ccc(Cl)cc1 [Clofibrate, reference compound]
  I50 (concentration giving approximately 50% inhibition of cholesterol biosynthesis): 250 to 300 µg/mL

## Cc1ccc2ccccc2c1CCC1CC(O)CC(=O)O1 (centres unmarked) [Compound No. 1, 4-Hydroxy-6-[2-(2-methyl-1-naphthyl)ethyl]-3,4,5,6-tetrahydro-2H-pyran-2-one]
  I50 (concentration giving approximately 50% inhibition of cholesterol biosynthesis): 0.75 µg/mL

## CC(Oc1ccccc1)C1CC(O)CC(=O)O1 (centres unmarked) [Compound No. 2, 4-Hydroxy-6-(1-phenoxyethyl)-3,4,5,6-tetrahydro-2H-pyran-2-one]
  I50 (concentration giving approximately 50% inhibition of cholesterol biosynthesis): 42.3 µg/mL

## O=C1CC(O)CC(CCc2cccc3ccccc23)O1 (centres unmarked) [Compound No. 3, 4-Hydroxy-6-[2-(1-naphthyl)ethyl]-3,4,5,6-tetrahydro-2H-pyran-2-one]
  I50 (concentration giving approximately 50% inhibition of cholesterol biosynthesis): 6.4 µg/mL

## CC(C)(Oc1ccc(Cl)cc1)C1CC(O)CC(=O)O1 (centres unmarked) [Compound No. 4, 6-[1-(4-Chlorophenoxy)-1-methylethyl]-4-hydroxy-3,4,5,6-tetrahydro-2H-pyran-2-one]
  I50 (concentration giving approximately 50% inhibition of cholesterol biosynthesis): 21.3 µg/mL
